Columns and labels:
[1] = target: JNK1 (Homo sapiens (Human), UniProt P45983); test: In Vitro JNK1 Assay (TR-FRET, phosphorylation of GST-c-Jun); assay type: biochemical; conditions: 0.2 nM active JNK1 kinase, 26.7 nM GST-c-Jun, 2 μM ATP, 30 min at room temperature
Procedure, shortened: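 GST-c-Jun (residues 1-79) phosphorylation by JNK1 in 50 mM HEPES pH 7.0, MgCl2, 1 mM DTT, 0.1 mM Na3VO4, 0.2 mg/mL BSA, 30 min at room temperature. Stopped with EDTA plus anti-phospho-c-Jun antibody and read by TR-FRET 1 hr later. IC50 from percent inhibition over 10 serial dilutions.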

[2] = tested on: phospho(Ser63)-c-jun in HK-2 cells; test: Cell-Based Assay for JNK Inhibitors (in-cell ELISA, phospho(Ser63)-c-jun after TNFα); conditions: HK-2 cells (human proximal tubule cells), 60 minutes compound, then 10 ng/mL TNFα for 30 minutes
Procedure, shortened: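 HK-2 human proximal tubule cells were seeded at 40,000 cells/well, cultured 24 h, then serum-starved 16–24 h before TNFα stimulation with compound. Phospho(Ser63)-c-jun was quantified by in-cell ELISA on fixed, permeabilised cells, using a rabbit phospho-specific primary (overnight, 4 °C) and an HRP-linked anti-rabbit secondary. Absorbance was read at 450 nm.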

Chain of JNK1 (P45983 whole entry, the tested form may be a part): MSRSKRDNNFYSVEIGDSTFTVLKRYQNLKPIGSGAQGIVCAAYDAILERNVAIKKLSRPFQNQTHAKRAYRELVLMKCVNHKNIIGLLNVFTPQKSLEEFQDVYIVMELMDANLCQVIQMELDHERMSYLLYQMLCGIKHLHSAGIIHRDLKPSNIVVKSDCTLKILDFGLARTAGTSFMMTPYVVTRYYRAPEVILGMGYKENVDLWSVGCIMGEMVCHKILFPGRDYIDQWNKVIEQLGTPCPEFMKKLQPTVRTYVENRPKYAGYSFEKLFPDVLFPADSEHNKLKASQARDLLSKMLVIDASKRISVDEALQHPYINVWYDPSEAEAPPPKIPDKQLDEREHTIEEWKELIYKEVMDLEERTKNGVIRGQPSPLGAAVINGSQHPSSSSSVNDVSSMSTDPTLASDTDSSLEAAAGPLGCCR

Row | Compound | IC50 [1] [nM] | EC50 [2] [nM]
1 | CN(C)c1ccc(C(=O)NCc2cn(-c3ccccc3)c3cc(Cl)ccc3c2=O)cn1 [Example I-79, N-(7-Chloro-4-oxo-1-phenyl-1,4-dihydro-quinolin-3-ylmethyl)-6-dimethylamino-nicotinamide] | 55 | 46000
2 | O=C(NCc1cn(-c2ccccc2)c2cc(Cl)ccc2c1=O)c1ccc(N2CCS(=O)(=O)CC2)nc1 [Example I-80, N-(7-Chloro-4-oxo-1-phenyl-1,4-dihydro-quinolin-3-ylmethyl)-6-(1,1-dioxo-thiomorpholin-4-yl)-nicotinamide] | 56 | 12000
3 | CC(C)(C)OC(=O)NC1CCN(c2ccc(C(=O)NCc3cn(-c4ccccc4)c4cc(Cl)ccc4c3=O)cn2)CC1 [Example I-81, {5′-[(7-Chloro-4-oxo-1-phenyl-1,4-dihydro-quinolin-3-ylmethyl)-carbamoyl]-3,4,5,6-tetrahydro-2H-[1,2]bipyridinyl-4-yl}-carbamic acid tert-butyl ester] | 65 | 100000
4 | CN1CCCN(c2ccc(C(=O)NCc3cn(-c4ccccc4)c4cc(Cl)ccc4c3=O)cn2)CC1 [Example I-82, N-(7-Chloro-4-oxo-1-phenyl-1,4-dihydro-quinolin-3-ylmethyl)-6-(4-methyl-[1,4]diazepan-1-yl)-nicotinamide] | 71 | 19000
5 | O=C(NCc1cn(-c2ccccc2)c2cc(Cl)ccc2c1=O)c1ccc(N2CCN(CCO)CC2)nc1 [Example I-83, N-(7-Chloro-4-oxo-1-phenyl-1,4-dihydro-quinolin-3-ylmethyl)-6-[4-(2-hydroxy-ethyl)-piperazin-1-yl]-nicotinamide] | 81 | 12000
6 | O=C(NCc1cn(-c2ccccc2)c2cc(Cl)ccc2c1=O)c1ccc(N2CCCC2)nc1 [Example I-84, N-(7-Chloro-4-oxo-1-phenyl-1,4-dihydro-quinolin-3-ylmethyl)-6-pyrrolidin-1-yl-nicotinamide] | 100 | 52000
7 | O=C(NCc1cn(-c2ccccc2)c2cc(Cl)ccc2c1=O)c1ccc(N2CCNCC2)nc1 [Example I-85, N-(7-Chloro-4-oxo-1-phenyl-1,4-dihydro-quinolin-3-ylmethyl)-6-piperazin-1-yl-nicotinamide] | 110 | 72000
8 | O=C(NCc1cn(-c2ccccc2)c2cc(Cl)ccc2c1=O)c1cnc(N2CCCCC2)s1 [Example I-91, 2-Piperidin-1-yl-thiazole-5-carboxylic acid (7-chloro-4-oxo-1-phenyl-1,4-dihydro-quinolin-3-ylmethyl)-amide] | 16 | 19000
9 | CS(=O)(=O)C1CCN(c2ncc(C(=O)NCc3cn(-c4ccccc4)c4cc(Cl)ccc4c3=O)s2)CC1 [Example I-92, 2-(4-Methanesulfonyl-piperidin-1-yl)-thiazole-5-carboxylic acid (7-chloro-4-oxo-1-phenyl-1,4-dihydro-quinolin-3-ylmethyl)-amide] | 21 | 26000
10 | O=C(NCc1cn(-c2ccccc2)c2cc(Cl)ccc2c1=O)c1cnc(N2CCC(CO)CC2)s1 [Example I-93, 2-(4-Hydroxymethyl-piperidin-1-yl)-thiazole-5-carboxylic acid (7-chloro-4-oxo-1-phenyl-1,4-dihydro-quinolin-3-ylmethyl)-amide] | 33 | 100000
11 | O=C(NCc1cn(-c2ccccc2)c2cc(Cl)ccc2c1=O)c1cnc(N2CCC(O)CC2)s1 [Example I-94, 2-(4-Hydroxypiperidin-1-yl)-thiazole-5-carboxylic acid (7-chloro-4-oxo-1-phenyl-1,4-dihydro-quinolin-3-ylmethyl)-amide] | 36 | 14000
12 | CN1CCN(c2ncc(C(=O)NCc3cn(-c4ccccc4)c4cc(Cl)ccc4c3=O)s2)CC1 [Example I-95, 2-(4-Methyl-piperazin-1-yl)-thiazole-5-carboxylic acid (7-chloro-4-oxo-1-phenyl-1,4-dihydro-quinolin-3-ylmethyl)-amide] | 40 | 22000
13 | O=C(NCc1cn(-c2ccccc2)c2cc(Cl)ccc2c1=O)c1cnc(N2CCOCC2)s1 [Example I-96, 2-Morpholin-4-yl-thiazole-5-carboxylic acid (7-chloro-4-oxo-1-phenyl-1,4-dihydro-quinolin-3-ylmethyl)-amide] | 55 | 100000
14 | O=C(NCc1cn(-c2ccccc2)c2cc(Cl)ccc2c1=O)c1cnc(N2CCS(=O)(=O)CC2)s1 [Example I-97, 2-(1,1-Dioxo-thiomorpholin-4-yl)-thiazole-5-carboxylic acid (7-chloro-4-oxo-1-phenyl-1,4-dihydro-quinolin-3-ylmethyl)-amide] | 69 | 39000
15 | O=C(NCc1cn(-c2ccccc2)c2cc(Cl)ccc2c1=O)c1ccc(C(=O)NC2C3CC4CC2CC(O)(C4)C3)cc1 (centres unmarked) [Example I-99, N-(7-Chloro-4-oxo-1-phenyl-1,4-dihydro-quinolin-3-ylmethyl)-N′-(5-hydroxy-adamantan-2-yl)-terephthalamide] | 52 | 6200
16 | O=C(NCc1cn(-c2ccccc2Cl)c2cc(Cl)ccc2c1=O)c1ccc(N2CCOCC2)nc1 [Example I-100] | 90 | 29000
17 | Cn1cc(C(=O)NCc2cn(-c3ccccc3F)c3cc(F)ccc3c2=O)cn1 [Example I-104, 1-Methyl-1H-pyrazole-4-carboxylic acid [7-fluoro-1-(2-fluoro-phenyl)-4-oxo-1,4-dihydro-quinolin-3-ylmethyl]-amide] | 120 | 100000
18 | O=C(NCc1cn(-c2ccccc2F)c2cc(F)ccc2c1=O)c1ccc(N2CCC(CO)CC2)nc1 [Example I-106, 4-Hydroxymethyl-3,4,5,6-tetrahydro-2H-[1,2′]bipyridinyl-5′-carboxylic acid [7-fluoro-1-(2-fluoro-phenyl)-4-oxo-1,4-dihydro-quinolin-3-ylmethyl]-amide] | 52 | 50000
19 | O=C(NCc1cn(-c2ccccc2F)c2cc(F)ccc2c1=O)c1ccc(N2CCOCC2)nc1 [Example I-108, N-[7-Fluoro-1-(2-fluoro-phenyl)-4-oxo-1,4-dihydro-quinolin-3-ylmethyl]-6-morpholin-4-yl-nicotinamide] | 120 | 47000
20 | COC(=O)c1c(CNC(=O)c2ccc(S(C)(=O)=O)cc2)c(=O)c2ccc(Cl)cc2n1-c1ccccc1 [Example I-109, 7-chloro-3-[(4-methanesulfonyl-benzoylamino)-methyl]-4-oxo-1-phenyl-1,4-dihydroquin-oline-2-carboxylic acid methyl ester] | 4 | 5700
21 | COC(=O)c1c(CNC(=O)c2ccc(-c3cnco3)cc2)c(=O)c2ccc(Cl)cc2n1-c1ccccc1 [Example I-110, 7-Chloro-3-[(4-oxazol-5-yl-benzoylamino)-methyl]-4-oxo-1-phenyl-1,4-dihydro-quinoline-2-carboxylic acid methyl ester] | 4 | 4000
22 | COC(=O)c1c(CNC(=O)c2ccc(-c3nnc[nH]3)cc2)c(=O)c2ccc(Cl)cc2n1-c1ccccc1 [Example I-111, 7-Chloro-4-oxo-1-phenyl-3-{[4-(4H-[1,2,4]triazol-3-yl)-benzoylamino]-methyl}-1,4-dihydro-quinoline-2-carboxylic acid methyl ester] | 5 | 1300
23 | COC(=O)c1c(CNC(=O)c2ccc(N3CCOCC3)nc2)c(=O)c2ccc(Cl)cc2n1-c1ccccc1 [Example I-112, 7-Chloro-3-{[(6-morpholin-4-yl-pyridine-3-carbonyl)-amino]-methyl}-4-oxo-1-phenyl-1,4-dihydro-quinoline-2-carboxylic acid methyl ester] | 6 | 1200
24 | COC(=O)c1c(CNC(=O)c2ccc3scnc3c2)c(=O)c2ccc(Cl)cc2n1-c1ccccc1 [Example I-113, 3-{[(Benzothiazole-5-carbonyl)-amino]-methyl}-7-chloro-4-oxo-1-phenyl-1,4-dihydro-quinoline-2-carboxylic acid methyl ester] | 7 | 2000
25 | COC(=O)c1c(CNC(=O)c2ccc(-c3ncc[nH]3)cc2)c(=O)c2ccc(Cl)cc2n1-c1ccccc1 [Example I-114, 7-Chloro-3-{[4-(1H-imidazol-2-yl)-benzoylamino]-methyl}-4-oxo-1-phenyl-1,4-dihydro-quinoline-2-carboxylic acid methyl ester] | 7 | 4100
26 | COC(=O)c1c(CNC(=O)c2ccc(S(N)(=O)=O)cc2)c(=O)c2ccc(Cl)cc2n1-c1ccccc1 [Example I-115, 7-Chloro-4-oxo-1-phenyl-3-[(4-sulfamoyl-benzoylamino)-methyl]-1,4-dihydro-quinoline-2-carboxylic acid methyl ester] | 8 | 2400
27 | COC(=O)c1c(CNC(=O)c2ccc(C(N)=O)cc2)c(=O)c2ccc(Cl)cc2n1-c1ccccc1 [Example I-117, 3-[(4-Carbamoyl-benzoylamino)-methyl]-7-chloro-4-oxo-1-phenyl-1,4-dihydro-quinoline-2-carboxylic acid methyl ester] | 10 | 3800
28 | CNC(=O)c1ccc(C(=O)NCc2c(C(=O)OC)n(-c3ccccc3)c3cc(Cl)ccc3c2=O)cc1 [Example I-118, 7-Chloro-3-[(4-methylcarbamoyl-benzoylamino)-methyl]-4-oxo-1-phenyl-1,4-dihydro-quinoline-2-carboxylic acid methyl ester] | 11 | 3700

From patent US8501732B2, “Aminomethyl quinolone compounds” (Hoffmann-La Roche Inc., priority 2011, dated 2013)
